Some test systems named below: A549 NSCLC; COLO 205 colon; HOP-62 NSCLC; K-562 leukemia; MDA-MB-231 breast; NCI-H226 lung; RPMI-8226 leukemia; UACC-257 melanoma; UO-31 renal; NCI-H460 lung.
Holding throughout (test): NCI anticancer screen, dose series, 48 h

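Interpolation was linear, between the two tested concentrations surrounding the appropriate level; five concentrations were tested over 48 hours in 96-well plates. GI50: concentration for 50% inhibition of growth. TGI: concentration producing complete growth inhibition.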

As for `C/C(=N\O)c1ccc(Nc2cc(-c3ccccc3)nc3c(O)cccc23)cc1`, the GI50 with A549 NSCLC was 10.2 µM; in the test on COLO 205 colon, 20.7 µM; with HOP-62 NSCLC, 12.9 µM; in the test on K-562 leukemia it was 15.2 µM; in the test on MDA-MB-231 breast, 2.46 µM; in the test on NCI-H226 lung it was 14.7 µM. The results for the GI50 with RPMI-8226 leukemia, with UACC-257 melanoma and with UO-31 renal were 4.5 µM, 11.7 µM and 14.8 µM, respectively. The TGI in the test with A549 NSCLC worked out at 31 µM; in the test with COLO 205 colon, 42.6 µM; in the test with HOP-62 NSCLC, 26.6 µM; in the test on K-562 leukemia, 97.6 µM; with MDA-MB-231 breast, 11.8 µM; in the test with NCI-H226 lung, 31.8 µM. Moreover, the values for the TGI in the test with RPMI-8226 leukemia, in the test with UACC-257 melanoma and in the test with UO-31 renal were 30.8 µM, 24.4 µM and 33.7 µM, respectively.
Turning to `CC(NC(=O)C1(N)CCCC1)C(=O)O` (configuration not stated), the TGI in the test on A549 NSCLC, with COLO 205 colon, in the test on HOP-62 NSCLC, in the test on K-562 leukemia, in the test on MDA-MB-231 breast and with NCI-H226 lung was above 100 µM in each case. The TGI in the test with RPMI-8226 leukemia, with UACC-257 melanoma and with UO-31 renal was above 100 µM throughout.
Take `COc1ccc2c(C(=O)NCCCCCC(=O)O)cc3cc4c(cc3c2c1)OCO4`: the GI50 in the test on A549 NSCLC is above 100 µM; with COLO 205 colon, above 100 µM; in the test with HOP-62 NSCLC it was above 100 µM; with K-562 leukemia, above 100 µM; in the test on MDA-MB-231 breast, 99.5 µM; in the test on NCI-H226 lung it was 83.5 µM. Besides, the GI50 in the test on NCI-H460 lung, with RPMI-8226 leukemia and with UACC-257 melanoma was above 100 µM each time. Further, the TGI in the test on A549 NSCLC, with COLO 205 colon, with HOP-62 NSCLC, in the test with K-562 leukemia, in the test with MDA-MB-231 breast and in the test on NCI-H226 lung was above 100 µM each time. Besides, the TGI in the test on NCI-H460 lung, in the test with RPMI-8226 leukemia and in the test on UACC-257 melanoma was above 100 µM each time.
For `COc1cc(-c2cc(C(=O)N3CCN(C(=O)c4ccccc4NCc4cccs4)CC3)nc3cc(-c4ccccc4)nn23)cc(OC)c1OC`, the GI50 in the test with A549 NSCLC was 5.68 µM; in the test with COLO 205 colon it was 4.04 µM; in the test on HOP-62 NSCLC, 11 µM; in the test with K-562 leukemia it was 1.38 µM; with MDA-MB-231 breast, 8.67 µM; in the test on NCI-H226 lung it was 6.39 µM. Also, the figures for the GI50 with NCI-H460 lung, in the test on UACC-257 melanoma and in the test with UO-31 renal were 4.26 µM, above 100 µM and 6.99 µM, respectively. For the same compound, the TGI is above 100 µM with A549 NSCLC; 26.5 µM with COLO 205 colon; 86.7 µM in the test with HOP-62 NSCLC; 17.4 µM with K-562 leukemia; above 100 µM with MDA-MB-231 breast; above 100 µM with NCI-H226 lung. For the same compound, the TGI in the test on NCI-H460 lung, with UACC-257 melanoma and in the test with UO-31 renal was above 100 µM each time.
As for `COc1cc(/C=C/C(=O)c2ccc(SC)cc2)cc(OC)c1OC`, the GI50 with A549 NSCLC was 6.25 µM; with COLO 205 colon it was 13.3 µM; in the test with HOP-62 NSCLC it was 14.7 µM; in the test with K-562 leukemia it was 3.2 µM; in the test with MDA-MB-231 breast it was 4.46 µM; in the test with NCI-H460 lung, 15 µM. The GI50 was 3.9 µM with RPMI-8226 leukemia, 5.45 µM in the test with UACC-257 melanoma and 10.8 µM with UO-31 renal. The TGI in the test with A549 NSCLC amounted to 20.7 µM; with COLO 205 colon, 31.5 µM; in the test with HOP-62 NSCLC it was 29.5 µM; with K-562 leukemia, 16.4 µM; in the test with MDA-MB-231 breast, 17.2 µM; in the test with NCI-H460 lung, 32.6 µM. In addition, the values for the TGI in the test with RPMI-8226 leukemia, in the test with UACC-257 melanoma and in the test with UO-31 renal were above 100 µM, 18.1 µM and 23 µM, respectively.
Regarding `COc1ccc(S(=O)(=O)Nc2c(/C=C\c3cc(OC)c(OC)c(OC)c3)ccc(OC)c2O)cc1OC`, the GI50 in the test with A549 NSCLC was 0.403 µM; in the test on COLO 205 colon, 0.472 µM; in the test on HOP-62 NSCLC it was 0.61 µM; with K-562 leukemia, 0.0927 µM; in the test with MDA-MB-231 breast it was 0.338 µM; in the test on NCI-H460 lung it was 0.283 µM. Also, the values for the GI50 with RPMI-8226 leukemia, in the test with UACC-257 melanoma and in the test with UO-31 renal were 0.413 µM, above 78.2 µM and 0.864 µM, respectively. Further, the TGI is above 100 µM in the test with A549 NSCLC; 2.99 µM in the test on COLO 205 colon; above 100 µM in the test on HOP-62 NSCLC; above 100 µM in the test with K-562 leukemia; above 100 µM with MDA-MB-231 breast; above 100 µM in the test with NCI-H460 lung. Also, the TGI in the test on RPMI-8226 leukemia was above 61 µM; in the test on UACC-257 melanoma it was above 100 µM; in the test with UO-31 renal, above 100 µM.
Consider `COC(=O)/C=C/c1cc(OC)c2c(c1)[C@@H](C(=O)OC)[C@H](c1ccc(OC)c(OC)c1)O2`, for which the GI50 with A549 NSCLC is 11.2 µM; in the test on HOP-62 NSCLC it was 4.33 µM; in the test with MDA-MB-231 breast, 7.39 µM; in the test with NCI-H226 lung, 38.4 µM; in the test on NCI-H460 lung, 3.9 µM; in the test on UO-31 renal, 3.4 µM. Also, the TGI with A549 NSCLC, in the test with HOP-62 NSCLC, in the test on MDA-MB-231 breast, in the test with NCI-H226 lung, in the test on NCI-H460 lung and with UACC-257 melanoma was above 100 µM throughout. In the test on UO-31 renal, this compound displayed a TGI above 100 µM.
In the case of `CC(=O)O[C@H]1CC[C@@]2(C)[C@@H](CC[C@@H]3[C@@H]2CC(=O)[C@@]2(C)[C@H]3C[C@@H]3CC(C)=CC(=O)[C@@H]32)C1`, the TGI in the test with A549 NSCLC, in the test on COLO 205 colon, with HOP-62 NSCLC, with K-562 leukemia, in the test with MDA-MB-231 breast and in the test on NCI-H226 lung was above 100 µM in each case. Also, the TGI was 45.8 µM in the test with RPMI-8226 leukemia, above 100 µM with UACC-257 melanoma and above 100 µM in the test with UO-31 renal.
On to `CCCCCCCCCCCC(=O)[O][Sn]([CH2]CCC)([CH2]CCC)[CH2]CCC`, for which the GI50 with A549 NSCLC is 0.055 µM; in the test on COLO 205 colon, 0.0509 µM; with HOP-62 NSCLC, 0.0795 µM; with K-562 leukemia, 0.0364 µM; in the test with MDA-MB-231 breast, 0.0317 µM; in the test on NCI-H460 lung, 0.0438 µM. Also, the figures for the GI50 with RPMI-8226 leukemia, in the test on UACC-257 melanoma and in the test on UO-31 renal were 0.0228 µM, 0.0533 µM and 0.0347 µM, respectively. Besides, the TGI turned out to be 0.185 µM with A549 NSCLC; 0.122 µM in the test on COLO 205 colon; 0.232 µM with HOP-62 NSCLC; 0.286 µM in the test on K-562 leukemia; 0.113 µM in the test with MDA-MB-231 breast; 0.156 µM in the test with NCI-H460 lung. Besides, the TGI in the test on RPMI-8226 leukemia came to 0.098 µM; with UACC-257 melanoma it was 0.181 µM; in the test on UO-31 renal it was 0.0849 µM.
Turning to `c1ccc2c(c1)-c1nc3ccccc3cc1C2N1CCOCC1` (configuration not stated), the TGI in the test on A549 NSCLC, in the test with COLO 205 colon, in the test on HOP-62 NSCLC, in the test with K-562 leukemia, with MDA-MB-231 breast and in the test on NCI-H226 lung was above 100 µM in each case. The TGI in the test with RPMI-8226 leukemia and with UACC-257 melanoma was above 100 µM throughout.
For `OC(c1cc2c(Cl)cc(Cl)cc2c2cc(C(F)(F)F)ccc12)C1CCCCN1` (configuration not stated), the GI50 with A549 NSCLC was 1.85 µM; with COLO 205 colon, 1.88 µM; with HOP-62 NSCLC, 1.72 µM; in the test on MDA-MB-231 breast, 1.48 µM; in the test on NCI-H226 lung, 1.73 µM; with NCI-H460 lung, 1.7 µM. Also, the figures for the GI50 with RPMI-8226 leukemia, in the test with UACC-257 melanoma and in the test on UO-31 renal were 2.3 µM, 1.92 µM and 1.41 µM, respectively. The TGI with A549 NSCLC stood at 3.68 µM; in the test on COLO 205 colon it was 3.55 µM; in the test with HOP-62 NSCLC, 3.47 µM; in the test with MDA-MB-231 breast, 3.24 µM; with NCI-H226 lung it was 3.56 µM; in the test with NCI-H460 lung, 3.4 µM. Besides, the values for the TGI in the test with RPMI-8226 leukemia, in the test on UACC-257 melanoma and with UO-31 renal were 4.95 µM, 3.7 µM and 2.99 µM, respectively.
Take `Cc1cccc(C)c1NC(=O)/C(CC(=O)CC(c1ccccc1)c1c(O)c2ccccc2oc1=O)=N/O` (configuration not stated): the TGI in the test with A549 NSCLC, in the test on COLO 205 colon, in the test with HOP-62 NSCLC, in the test on MDA-MB-231 breast, with NCI-H226 lung and with NCI-H460 lung was above 100 µM throughout. Further, the TGI with UACC-257 melanoma and with UO-31 renal was above 100 µM throughout.
Regarding `CCOC(=O)/C(C#N)=C/c1[nH]c(C)c(C)c1C`, the TGI with A549 NSCLC, in the test on COLO 205 colon, in the test on HOP-62 NSCLC, in the test with K-562 leukemia, with NCI-H226 lung and with NCI-H460 lung was above 100 µM throughout. In addition, the TGI with RPMI-8226 leukemia, with UACC-257 melanoma and in the test on UO-31 renal was above 100 µM each time.
With `COc1ccc2c(c1)[n+](=O)c(C(=O)C/C(=N\NC(=O)C[N+](C)(C)C)C(=O)Nc1cc(Cl)ccc1Cl)c(C)n2O`, the TGI in the test with A549 NSCLC, in the test with COLO 205 colon, in the test on HOP-62 NSCLC, in the test on K-562 leukemia, with NCI-H226 lung and with NCI-H460 lung was above 100 µM each time. Moreover, the TGI in the test on RPMI-8226 leukemia, in the test on UACC-257 melanoma and in the test with UO-31 renal was above 100 µM each time.
As to `COc1ccc2c(c1)cn1c3ccc(OC)cc3[nH]c(=O)c21`, the GI50 with A549 NSCLC is below 0.0205 µM; with COLO 205 colon it was below 0.0175 µM; in the test with HOP-62 NSCLC, below 0.0252 µM; in the test on MDA-MB-231 breast it was below 0.0188 µM; in the test with NCI-H226 lung, 0.059 µM; with RPMI-8226 leukemia, 0.0253 µM. Also, the GI50 with UACC-257 melanoma is 14.6 µM; in the test on UO-31 renal, below 0.0169 µM. For the same compound, the TGI with A549 NSCLC stood at 1.33 µM; in the test on COLO 205 colon it was 0.0294 µM; in the test on HOP-62 NSCLC, 1.66 µM; in the test with MDA-MB-231 breast it was 0.27 µM; with NCI-H226 lung it was 8.97 µM; with RPMI-8226 leukemia, 0.0984 µM. In addition, the TGI in the test on UACC-257 melanoma worked out at 29.5 µM; in the test on UO-31 renal, 1.77 µM.

The values above are taken from PubChem BioAssay (NCI).
